The values below come from patent US20250230226A1, “PLXDC1/PLXDC2 ACTIVATORS AND THEIR USE IN THE TREATMENT OF BLOOD VESSEL DISORDERS” (THE REGENTS OF THE UNIVERSITY OF CALIFORNIA, priority 2019, published 2025).

The subject of the assay is LL/2 lung cancer tumor endothelial cells. Put plainly: Lung LL2 ex vivo model of tumor angiogenesis. It counts as cell-based, mouse. As to conditions: for Cell death: drug treatment for two days, ratio of red area to total endothelial cell area; for 48 hrs (morphology observations): LL/2 tumor endothelial cells; for cytotoxicity at 40 µM / cytotoxicity at 20 µM: Mus musculus, Endothelial cell, 48 h, read-out: Cell death. Here is the method:
An ex vivo tumor angiogenesis model was developed to test the efficacy of anti-cancer candidate agents. The following protocol describes the Ex Vivo Tumor Angiogenesis Model.
• 1. The day before the experiment, all necessary tools were sprayed with 70% ethanol and sterilized under UV light overnight, including blade, dissecting and micro-dissecting scissors and […]. 24-well dishes were placed at 4° C. to pre-chill plates and Matrigel was thawed, 24 hours before tumor dissection. • 2. 70% ethanol was sprayed on working bench. Two sterile petri dishes were prepared with 10 ml sterile PBS. The following steps 3 and 4 are necessary for mouse tumor models. For fresh human tumor, steps 3 and 4 are skipped. • 3. The tumor-bearing mice were euthanized. 70% ethanol was sprayed on the mouse and the tumor was removed using sterilized dissecting tools (avoid the fur). The tumor was rinsed in petri dish with sterile PBS to remove ethanol and fur. The tumor was transferred to a new petri dish with PBS for dissection. The dish is placed on ice. • 4. Pre-chilled sterile pipet tips were used to seed regular Matrigel in 24 well plates on ice. Matrigel (30 μl) was dropped in the middle of each well without touching the edge of the well (avoid introducing bubbles if possible). • 5. The tumor was cut in halves using the sterile blade. Healthy tumor tissue that is not necrotic and is within the tumor capsule was identified and isolated. The healthy tumor tissue was cut into small pieces. For instance, a suitable size for the tumor tissue is 0.5 mm (H)×0.5 mm (L)×0.3 mm (D) with a total volume of 0.075 mm^3. • 6. Each tumor piece was gently transferred and embedded in the Matrigel drop in the 24-well plate. The embedded piece was placed in the bottom and middle of each Matrigel drop. The plate was kept on ice all the time. • 7. After seeding the tumor pieces, plates were incubated in a 37° C. cell culture incubator without medium for 10 minutes in order for the Matrigel to solidify. • 8. Endothelial Growth Medium (0.5 ml) was added to each well and incubated at 37° C. with 5% CO2. Treatment was not added until the new endothelial cells was grown out of the tumor or were larger than 3 mm in diameter. This usually takes 4 days for the LL2 Lewis lung cancer model and 7 days for the CT26 colon cancer model. For human tumor models, the growth time is typically 2-3 weeks, depending on the tumor type. Media was changed every 4 days during prolonged culture. Typically, when the tumor tissue grows to 2 mm in diameter, it was good for drug testing. A size of about 3 mm in diameter can make visualization easier. • 9. When the assay was ready to be analyzed for cell death (e.g., 48 hours after drug addition), the dye mixture was prepared by mixing 6 μl of green dye to stain live cells (5 mg/ml Fluorescein diacetate or FDA in DMSO) with 30 μl of red dye (2.5 mg/ml Propidium iodide or PI in PBS) to stain dead cells in an Eppendorf tube. The FDA dye needs to be stored frozen in a −20° C. freezer because it has a labile ester bond. • 10. 1 μl of the dye mixture was added to each well of the 24-well dish. It is usually preferred to do one 24-well dish at a time given the amount of time needed to take pictures (the green dye is not as stable in the cells in the long term). • 11. The dish was gently rocked a few times to mix the dye with the media in the wells and incubate the dish at 37° C. for 10 min (too long incubation can make the green signal too intense). • 12. Each well was washed with 0.5 ml of sterile PBS and then 0.5 ml of phenol red free SFM was added to each well. Alternatively 0.5 ml of regular Endothelial Cell Growth Media can be added to each well if this well needs to be continuously maintained after the experiment. • 13. An inverted microscope using the 2× objective lens was used to observe morphological changes in the experimental wells. • 14. […]

In the case of `COc1ccc(S(=O)(=O)c2cnc3ccc(OC(F)(F)F)cc3c2NCCO)cc1OC` [Compound 73], under “40 μm”, the Cell death came out at 10%.

For the compound `CCc1ccc(S(=O)(=O)c2cnc3ccc(OC)cc3c2NN2CCN(C)CC2)cc1` [Compound 83], the cytotoxicity at 40 µM came to 20%. For the same compound, the “48 hrs (morphology observations)” value (40 μm) is reported as 0. On to `CCc1ccc(S(=O)(=O)c2cnc3ccc(OC(F)(F)F)cc3c2N2CCC(N(CC)CC)CC2)cc1` [Compound 103], for which, where the note is “20 μm”, the “48 hrs (morphology observations)” value worked out at 0 and the Cell death is 10%. For `CCc1ccc(S(=O)(=O)c2cnc3ccc(OC(F)(F)F)cc3c2NCCCCCO)cc1` [Compound 104], in that order: 0 and 20%.

Take `CCc1ccc(S(=O)(=O)c2cnc3ccc(OC(F)(F)F)cc3c2NN2CCCCC2)cc1` [Compound 105]: under “20 μm”, the “48 hrs (morphology observations)” value is listed as 0 and the Cell death was determined as 0%. Regarding `CCc1ccc(S(=O)(=O)c2cnc3ccc(OC(F)(F)F)cc3c2NCc2ccncc2)cc1` [Compound 106], for the setting “20 μm”, the “48 hrs (morphology observations)” value came out at 0 and the Cell death is listed as 5%. The like results for `CCc1ccc(S(=O)(=O)c2cnc3ccc(OC(F)(F)F)cc3c2Nc2ccncc2)cc1` [Compound 107] were, in that order, 0 and 0%. The like results for `CCc1ccc(S(=O)(=O)c2cnc3ccc(OC(F)(F)F)cc3c2-n2cccc2)cc1` [Compound 108] were, in that order, 0 and 0%. For `CCc1ccc(S(=O)(=O)c2cnc3ccc(OC(F)(F)F)cc3c2-n2cccn2)cc1` [Compound 109], in that order: 0 and 0%. As to `CCc1ccc(S(=O)(=O)c2cnc3ccc(OC(F)(F)F)cc3c2NCCCCO)cc1` [Compound 111], where the note is “20 μm”, the “48 hrs (morphology observations)” value was 0 and the Cell death was found to be 30%. On to `COc1ccc(S(=O)(=O)c2cnc3ccc(OC(F)(F)F)cc3c2N2CCC(N3CCC(O)CC3)CC2)cc1` [Compound 113], for which the cytotoxicity at 20 µM was determined as 10%. Also, where the note is “20 μm”, the “48 hrs (morphology observations)” value is 0. As to `COc1ccc(S(=O)(=O)c2cnc3ccc([N+](=O)[O-])cc3c2N2CCC(N3CCCCC3)CC2)cc1` [Compound 114], for the setting “20 μm”, the “48 hrs (morphology observations)” value was determined as 0 and the Cell death worked out at 5%.

Turning to `COc1ccc(S(=O)(=O)c2cnc3ccc(CC#N)cc3c2N2CCC(N3CCCCC3)CC2)cc1` [Compound 115], the cytotoxicity at 20 µM stood at 10%. For the same compound, where the note is “20 μm”, the “48 hrs (morphology observations)” value is given as 0. For `O=S(=O)(c1ccc(OC(F)(F)F)cc1)c1cnc2ccc(OC(F)(F)F)cc2c1N1CCC(N2CCCCC2)CC1` [Compound 120], in that order: 5% and 0. For the compound `COc1ccc(S(=O)(=O)c2cnc3cc(OC)c(OC)cc3c2N2CCC(N3CCCCC3)CC2)cc1OC` [Compound 122], for the setting “20 μm”, the “48 hrs (morphology observations)” value is listed as 0 and the Cell death was found to be 10%. As for `CCc1ccc(S(=O)(=O)c2cnc3ccc(OC(F)(F)F)cc3c2-n2cnnn2)cc1` [Compound 125], the cytotoxicity at 20 µM is 10%. Also, where the note is “20 μm”, the “48 hrs (morphology observations)” value is on record as “* (50% or less of cells vesicularize in cell shape)”. For the compound `CCc1ccc(S(=O)(=O)c2cnc3ccc(OC(F)(F)F)cc3c2NN2CCOCC2)cc1` [Compound 126], where the note is “20 μm”, the “48 hrs (morphology observations)” value turned out to be 0 and the Cell death was 10%. `CCOC(=O)c1ccc2ncc(S(=O)(=O)c3ccc(CC)cc3)c(-n3nnc4ccccc43)c2c1` [Compound 133]: for the setting “20 μm”, the Cell death turned out to be 10%. As for `CCOC(=O)c1ccc2ncc(S(=O)(=O)c3ccc(CC)cc3)c(-n3ccnc3)c2c1` [Compound 134], the “48 hrs (morphology observations)” value (20 μm) was “**** (100% of endothelial cells vesicularize in cell shape and look flattened in morphology (indicating disintegration of the cell body))”.

For `CCOC(=O)c1ccc2ncc(S(=O)(=O)c3ccc(OC)cc3)c(-n3ccnc3)c2c1` [Compound 141], under “20 μm”, the “48 hrs (morphology observations)” value was “**** (100% of endothelial cells vesicularize in cell shape and look flattened in morphology (indicating disintegration of the cell body))”; the Cell death is given as 90%.

In the case of `CCOC(=O)c1ccc2ncc(S(=O)(=O)c3ccc(OC)cc3)c(-n3nnc4ccccc43)c2c1` [Compound 142], the “48 hrs (morphology observations)” value (20 μm) was “**** (100% of endothelial cells vesicularize in cell shape and look flattened in morphology (indicating disintegration of the cell body))”.

Turning to `CNC(=O)c1ccc2ncc(S(=O)(=O)c3ccc(OC)cc3)c(N3CCC(N4CCCCC4)CC3)c2c1` [Compound 143], the cytotoxicity at 40 µM stood at 40%. Under “40 μm”, the “48 hrs (morphology observations)” value is recorded as 0.

Regarding `CCCCOc1ccc(S(=O)(=O)c2cnc3ccc([S+](C)[O-])cc3c2N2CCC(N3CCCCC3)CC2)cc1` (stereo not drawn) [Compound 167], where the note is “20 μm”, the “48 hrs (morphology observations)” value was 0 and the Cell death was found to be 40%. In the case of `CCCCOc1ccc(S(=O)(=O)c2cnc3ccc([S+](C)[O-])cc3c2N2CCC(N3CCC(O)CC3)CC2)cc1` (stereo not drawn) [Compound 168], where the note is “20 μm”, the “48 hrs (morphology observations)” value is reported as 0 and the Cell death was determined as 10%. The like results for `CCCCOc1ccc(S(=O)(=O)c2cnc3ccc(S(C)(=O)=O)cc3c2N2CCC(N3CCCCC3)CC2)cc1` [Compound 169] were, in that order, 0 and 40%. In the case of `CCCCOc1ccc(S(=O)(=O)c2cnc3ccc(S(C)(=O)=O)cc3c2N2CCC(N3CCC(O)CC3)CC2)cc1` [Compound 170], for the setting “20 μm”, the “48 hrs (morphology observations)” value is 0 and the Cell death stood at 10%. With `CCOC(=O)c1ccc2ncc(S(=O)(=O)c3ccc(OC)cc3)c(N3CCC(N4CCN(C)CC4)CC3)c2c1` [Compound 171], under “40 μm”, the “48 hrs (morphology observations)” value is 0 and the Cell death stood at 40%. With `CCCCOc1ccc(S(=O)(=O)c2cnc3ccc(C(=O)OCC)cc3c2N2CCC(N3CCN(C)CC3)CC2)cc1` [Compound 172], for the setting “40 μm”, the “48 hrs (morphology observations)” value is “**** (100% of endothelial cells vesicularize in cell shape and look flattened in morphology (indicating disintegration of the cell body))”; the Cell death is reported as 100%. For `CCOC(=O)c1ccc2ncc(S(=O)(=O)c3ccc(OC)cc3)c(N3CCC(N4CCCCCC4)CC3)c2c1` [Compound 173], the Cell death (40 μm) is reported as 50%. `CCOC(=O)c1ccc2ncc(S(=O)(=O)c3ccc(OC)cc3)c(N3CCC(N4CCCC(O)C4)CC3)c2c1` (stereo not drawn) [Compound 174]: under “40 μm”, the “48 hrs (morphology observations)” value was 0 and the Cell death is reported as 30%. For `CCOC(=O)c1ccc2ncc(S(=O)(=O)c3ccc(OC)cc3)c(N3CCC(N4CCC(CO)CC4)CC3)c2c1` [Compound 175], in that order: 0 and 30%. For `CCCCOc1ccc(S(=O)(=O)c2cnc3ccc(C(=O)OCC)cc3c2N2CCC(N3CCCCCC3)CC2)cc1` [Compound 176], in that order: “*** (more than 50% but less than 100% of endothelial cells vesicularize in cell shape)” and 100%. Consider `CCCCOc1ccc(S(=O)(=O)c2cnc3ccc(C(=O)OCC)cc3c2N2CCC(N3CCCC(O)C3)CC2)cc1` (stereo not drawn) [Compound 177], for which, under “40 μm”, the “48 hrs (morphology observations)” value was “**** (100% of endothelial cells vesicularize in cell shape and look flattened in morphology (indicating disintegration of the cell body))”; the Cell death is 100%. Consider `CCCCOc1ccc(S(=O)(=O)c2cnc3ccc(C(=O)OCC)cc3c2N2CCC(N3CCC(CO)CC3)CC2)cc1` [Compound 178], for which, where the note is “40 μm”, the “48 hrs (morphology observations)” value was “**** (100% of endothelial cells vesicularize in cell shape and look flattened in morphology (indicating disintegration of the cell body))”; the Cell death came to 100%.
